Entries after “also recorded” stand apart in the source; their conditions may differ. Read-outs that look alike come from different tables or passages of the source.
Legend:
[1] = tested on: SK-OV-3 (human ovarian carcinoma) cells; assay: In vitro cellular uptake by fluorescence microscopy, SK-OV-3; format: cell-based; conditions: for PI positive cells: 0.150 μmol in 220 μl via mixing chamber, 30 sec exposure; for PI positive cells, prodrug premixed with ITG: premixed with ITG (5 min) before application to the cells
Protocol: In Vitro cellular uptake of PI, RRH-PI compounds, and IV evaluated by fluorescence measurements. […] Adherent cells were plated at 2.5×10^5 cells/well on 6-well plates 24 h prior to testing. The growth media was removed from individual wells and the drug/prodrug was immediately added to the well with the mixing chamber. […] After 30 sec the drug solution was removed (aspirated) and 2 ml complete media was added to the cells. Experiments conducted with prodrug that was hydrolyzed prior to application to the cells followed a similar protocol, however the combined solution obtained after passing through the mixing chamber was collected and allowed to sit at ambient temperature for 5 min prior to application on the cells. Experiments conducted with Calcein AM (Invitrogen, 100 μl of 20 μM solution in complete media) followed a similar protocol for drug treatment (4 min treatment). Experiments conducted with SYTOX Green (Invitrogen) followed a similar protocol for drug treatment. […] Each condition was repeated in 2 or 3 wells, and the cells were immediately examined by microscopy. Fluorescent microscopy studies were conducted with a three laser LSM 510 confocal microscope, an Axiovert S100 fluorescent microscope, or an Axioplan2 fluorescent microscope (all Zeiss) equipped with filter sets for the rhodamine fluorescence channel (λex=BP 450/12, λem=LP 590 nm filter set) and the fluorescein fluorescent channel (λex=BP 546/90, λem=LP 515 nm filter set). Imaging was performed with an AxioCam digital camera (Zeiss), with AxioVision imaging software (V 4.5, Zeiss). For all images, identical camera settings and exposure times were used on comparative sample and control images. Images were processed with Photoshop (Adobe) for level and brightness using identical settings between sample and control images. For experiments conducted with IV, the cells were plated on 6-well plates with cover slips. […] Imaging was conducted on an Axioplan2 fluorescent microscope (Zeiss) and the same fields were imaged with phase contrast illumination, in the rhodamine fluorescence channel (λex=BP 450/12, λem=LP 590 nm filter set), and in the fluorescein fluorescent channel (λex=BP 546/90, λem=LP 515 nm filter set). IV was also mixed with PI and then delivered to SK-OV-3 cells, and the cells were imaged as before. In one protocol, equal amounts of IV (15.0 mM in DMSO) and PI (15.0 mM in DMSO) were combined and the resulting solution was added to cells via the mixing chamber. In a second method, PI was taken up in the ITG solution (0.748 mM) and mixed with IV (7.48 mM in DMSO) in the mixing chamber. […] The cells were imaged as before following 30 sec-4 min exposure to the drug solution.

[2] = tested on: MC38 liver metastases; assay: Liver arterial bolus injection (LABI) in mice with MC38 liver metastases; format: in vivo, C57BL mice; conditions: for PI staining of MC38 liver metastases: hepatic artery (LABI) delivery
Protocol: All surgical procedures were performed under Isoflurane anesthesia. Liver tumors models were established in C57BL mice using MC38 (colon carcinoma) and Hepa 1-6 (hepatoma), in BALB/c mice using B16 (melanoma), and in A/J mice using NXS2 (neuroblastoma) cell lines. Mice were inoculated via the portal vein with 1×10^4 MC38 cells or 0.5-1.25×10^6 Hepa 1-6 cells, or via the tail vein with 0.5-1.25×10^6 B16 or NXS2 cells. Tumor formation was allowed to progress for 2-3 weeks with periodic examination for tumor growth prior to drug/prodrug treatment.
The right gastro-duodenal artery was freed from surrounding tissue and the common hepatic artery was clamped occluding blood flow. The distal part of the right gastroduodenal artery was sutured, a 35 G needle was inserted into the gastroduodenal artery, and secured during the single bolus injection. Following the injection, the needle was retracted and the proximal part of gastroduodenal artery was sutured, and hepatic artery flow was restored. Alternatively, the celiac trunk was clamped close to the aorta and a 35 G needle was inserted above the clamp. The left gastric, splenic, and gastro-duodenal arteries were clamped in order to direct all of the drug solution to the liver. This latter approach was advantageous in the C57BL mouse model because of anatomical variations involving the hepatic artery.
LABI delivery of drug/prodrug (0.150 μmol, 220 μl total injection volume) and controls were performed using the mixing chamber and syringe pumps as previously described. For fluorescent microscopy analysis, the livers were harvested 5 min after LABI, snap frozen in O.C.T. compound, sectioned, stained (for confocal, green—actin (Alexa 488), blue—nuclei (ToPro-3)), and analyzed by fluorescent (Axioplan2) fluorescent microscope (Zeiss) in the rhodamine fluorescence channel (λex=BP 450/12, λem=LP 590 nm filter set) or in the fluorescein fluorescent channel (λex=BP 546/90, λem=LP 515 nm filter set) due to signal intensity) and confocal microscopy (Axioplan 2, Zeiss). For experiments designed to determine the number of PI positive cells, five random fields containing liver tumors and five random fields containing portal triads void of tumor were imaged. The number of cells and positive cells were counted to determine the percentage of positive cells in the corresponding regions.

[3] = tested on: cells exposed to the peritoneal cavity; assay: IP application to normal mice, confocal microscopy; format: in vivo, mouse; conditions: 10-60 min
Protocol: For evaluation of prodrug delivery to exposed tissues in the peritoneum, we tested IP application of propidium iodide, BDMSODS-PI, and C12PMMA-PI to both normal mice and in a mouse model of disseminated peritoneal ovarian cancer. All procedures were executed under Isoflurane inhalation anesthesia. In normal mice either the abdominal cavity was opened and the drug mixture was directly applied on abdominal organs (220 μL of drug-OS/ITG over 30 sec), or the drug mixture was injected through the abdominal wall (1 mL of drug-OS/ITG over 1 min). For both delivery protocols, the dual pump mixing chamber was used. After 10-60 min, the animals were euthanized and tissues were harvested, frozen, sectioned, stained with ToPro-3 and Phalloidin Alexa 488, and examined by laser confocal microscopy.

[4] = tested on: SK-OV-3 (human ovarian carcinoma); assay: WST cytotoxicity assay, SK-OV-3; format: cell-based; conditions: SK-OV-3, 4 min drug exposure, read-out: Mean IC50
Protocol: Antiproliferative/Cytotoxic in vitro studies on PI, RRH-PI prodrugs, melphalan, and C12PMMA-melphalan. In vitro cytotoxicity testing was conducted on Hepa 1-6 (mouse hepatoma), SK-OV-3 (human ovarian carcinoma), and MC38 (mouse colon carcinoma) cells using a tetrazolium based assay (WST, Dojindo Molecular Technologies). For the WST assay, Hepa 1-6 (2.0×10^5 cells well), SK-OV-3 (7.5×10^5 cells well), and MC38 (8.5×10^5 cells well) were seeded in 1000 μL media into 12-well plates 24 h prior to testing (starting confluency ˜50%). Following removal of media, drug/prodrug solution was added drop-wise to quadruplicate wells, using the mixing chamber. Effective drug concentrations were calculated from the amount of drug added in the total volume of OS and aqueous solution. Following 4 min of drug solution exposure, the solution was removed, and 1000 μl fresh complete media was added to each well. After the cells were incubated for 24-48 h, WST-1 (20 μl of a 5 mM solution in PBS) and N-methylphenazonium methyl sulfate (PMS, 20 μl 0.2 mM solution in PBS) were added and the cells were incubated for 1-4 h. For testing with MC38 cells, the amounts of WST-1 and PMS were doubled. Following incubation, 100 μl of sample was transferred to quadruplicate wells on a 96-well plate, and the absorbance (438 nm) values were measured on a SPECTRAmax Plus^384 microplate spectrophotometer (Molecular Devices Corporation). Data represents the mean A438 values of 16 wells with standard deviation, corrected for media contribution, and normalized against cells in media with no drug/prodrug treatment (reported as % cell viability±standard deviation).
The concentration of drug (μM) that is required for 50% inhibition in vitro is reported as the IC50. The reported values were calculated from the best fit line (Excel) for a plot of effective drug concentration against % cell viability, and include the r^2 value. The reported IC50 values for multiple RRH-PI plots are reported as IC50 (μM)±standard deviation.

[5] = tested on: Hepa 1-6 (mouse hepatoma) cells; assay: In vitro cellular uptake by fluorescence microscopy, Hepa 1-6; format: cell-based; conditions: 0.150 μmol in 220 μl via mixing chamber, 30 sec exposure
Protocol: In Vitro cellular uptake of PI, RRH-PI compounds, and IV evaluated by fluorescence measurements. PI and the RRH-prodrugs were tested for cellular uptake on several cell lines which included B16 (murine melanoma), Hepa 1-6 (mouse hepatoma), SK-OV-3 (also SKOV-3, human ovarian carcinoma), OVCAR-3 (human ovarian carcinoma), Jurkat (human T-lymphocyte), 293 (human embryonic kidney), and MC38 (mouse colon carcinoma) cells. Adherent cells were plated at 2.5×10^5 cells/well on 6-well plates 24 h prior to testing. The growth media was removed from individual wells and the drug/prodrug was immediately added to the well with the mixing chamber. Final drug/prodrug concentrations were 0.150 μmol in 220 μl total volume (20 μl OS, 200 μl ITG). After 30 sec the drug solution was removed (aspirated) and 2 ml complete media was added to the cells. Experiments conducted with prodrug that was hydrolyzed prior to application to the cells followed a similar protocol, however the combined solution obtained after passing through the mixing chamber was collected and allowed to sit at ambient temperature for 5 min prior to application on the cells. […] SYTOX Green (20 μl of 5 μM solution in 20 mM Hepes, pH 7.4) was added to the wells and the cells were examined. Each condition was repeated in 2 or 3 wells, and the cells were immediately examined by microscopy. Fluorescent microscopy studies were conducted with a three laser LSM 510 confocal microscope, an Axiovert S100 fluorescent microscope, or an Axioplan2 fluorescent microscope (all Zeiss) equipped with filter sets for the rhodamine fluorescence channel (λex=BP 450/12, λem=LP 590 nm filter set) and the fluorescein fluorescent channel (λex=BP 546/90, λem=LP 515 nm filter set). Imaging was performed with an AxioCam digital camera (Zeiss), with AxioVision imaging software (V 4.5, Zeiss). For all images, identical camera settings and exposure times were used on comparative sample and control images. Images were processed with Photoshop (Adobe) for level and brightness using identical settings between sample and control images.

[6] = Qualitative 90° light scattering for particles; format: physicochemical; conditions: relative to ITG or PI in ITG
Protocol: Light Scattering analysis of prodrugs. Particle size was determined by dynamic light scattering on a Zeta Plus (Zeta Potential Analyzer, Brookhaven Instrument Corporation, λ 533 nm, 90°), and results are reported as the size of the most abundant particle (range of particle sizes, counts sec^−1). Fluorescent compounds were also analyzed for particles qualitatively, by measuring for light scattering on a Cary Eclipse Fluorescence Spectrophotometer (Varian Inc.), with λex=λem (300-800 nm, 90° detection). The presence of particles in solution results in an increase in signal detection at 90°. PI and RRH-PI prodrugs were 7.48 mM in DMSO. Melphalan and V were 50 mM in DMSO. The drug/prodrug solutions were mixed and diluted with ITG through the mixing chamber (40 μl OS and 400 μl ITG), and analyzed immediately.

For `CC[N+](C)(CC)CCC[n+]1c(-c2ccccc2)c2cc(N)ccc2c2ccc(N)cc21.[I-].[I-]` [PI, Propidium iodide, reference compound], which PI positive cells [1] is on record?
The PI positive cells was “small percentage of PI positive cells”.

What about the PI positive cells ([1]; listed as propidium iodide) of the same molecule?
The PI positive cells was “stained very few cells”.

And the “PI staining of MC38 liver metastases” value [2]?
Its value is “greatly decreased number of PI positive cells within the MC38 metastases”.

And the “PI staining of MC38 liver metastases” value ([2]; listed as unmodified PI)?
Its value is “Few MC38 metastases labeled”.

And the “nuclear labeling of peritoneal tissues” value [3]?
Its value is “extremely rare nuclear labeling”.

What about the IC50 ([4]; WST 24 h after) of the same molecule?
The IC50 was over 1250 µM.

And the IC50 ([4]; WST 48 h after)?
The IC50 was over 1700 µM.

What about the “staining of cells (PI positive)” value [5] of the same molecule?
Its value is “stained very few cells”.

For `CCCCCCCCCCCCNC(=O)CCC(=CCC(=O)O)C(=O)Nc1ccc2c(c1)c(-c1ccccc1)[n+](CCC[N+](C)(CC)CC)c1cc(NC(=O)C(=CCC(=O)O)CCC(=O)NCCCCCCCCCCCC)ccc21.[I-].[I-]` [III, 3,8-bis-[2-(2 carboxyethylidene)-4-(dodecarbamoyl)-1-oxo-butylamine] 5-(3,3-diethyl-3-methylammoniumpropyl) 6-phenyl phenanthridinium diiodide], which PI positive cells [1] is on record?
Its PI positive cells is “paralleled the results obtained with II”.

What about the “PI staining of MC38 liver metastases” value [2] of the same molecule?
The value was “paralleled the results detailed with II”.

What about the “nuclear labeling of peritoneal tissues” value [3] of the same molecule?
Its value is “near-exclusive PI^+-staining of cells exposed to the peritoneal cavity”.

What about the “increase in 90° light scattering signal intensity” value [6] of the same molecule?
The value was “maximum two fold increase”.

And the “staining of cells (PI positive)” value [5]?
The value was “paralleled the results obtained with II”.

For `CCCCCCCCCCCCCCCCCC[Si](C)(C)Nc1ccc2c(c1)c(-c1ccccc1)[n+](CCC[N+](C)(CC)CC)c1cc(N[Si](C)(C)CCCCCCCCCCCCCCCCCC)ccc21.[I-].[I-]` [II, 3,8-bis[((dimethyl)octadecylsilazyl)amine] 5-(3,3-diethyl-3-methylammoniumpropyl) 6-phenyl phenanthridinium diiodide], which PI positive cells [1] is on record?
The PI positive cells was “nearly all of the cells being PI positive”.

What about the “PI positive cells, prodrug premixed with ITG” value [1] of the same molecule?
The value was “very few PI positive cells”.

What about the “PI positive cells, prodrug premixed with ITG” value ([1]; listed as BDMODS-PI) of the same molecule?
The value was “did not show PI positive staining”.

And the “cells PI positive in liver parenchyma region” value ([2]; LABI, confocal counting)?
Its value is 1%.

And the “cells PI positive in portal vein region” value ([2]; LABI, confocal counting)?
Its value is 23%.

What about the “cells PI positive in MC38 metastases” value ([2]; LABI, confocal counting, average of five images) of the same molecule?
Its value is 94%.

What about the “PI positive cells in other organs (heart, lung, spleen, and kidneys)” value ([2]; after LABI) of the same molecule?
Its value is “No PI positive cells were observed in any other organ examined”.

And the “total number of PI positive non tumor cells in the liver” value ([2]; estimated from region counts)?
Its value is 2-3%.

And the “PI staining of MC38 liver metastases” value [2]?
Its value is “strong nuclear staining of the metastases”.

What about the “PI staining of MC38 liver metastases” value ([2]; listed as BDMODS-PI) of the same molecule?
Its value is “intense, near-exclusive PI-staining of MC38 liver metastases; also recorded: strongly labeled with PI; also recorded: nearly all cells labeled”.

And the “nuclear labeling of peritoneal tissues” value [3]?
Its value is “near-exclusive PI^+-staining of cells exposed to the peritoneal cavity”.

And the “increase in 90° light scattering signal intensity” value [6]?
Its value is “maximum two fold increase”.

What about the IC50 ([4]; WST 24 h after) of the same molecule?
Its IC50 is 194 µM.

What about the IC50 ([4]; WST 48 h after) of the same molecule?
The IC50 was 257 µM.

What about the “staining of cells (PI positive)” value [5] of the same molecule?
The value was “strong nuclear staining in all of the cells”.

— patent publication US20090074885A1, “Reversible Hydrophobic Modification of Drugs for Improved Delivery to Cells” (Roche Madison Inc., priority 2003, published 2009)
